Measured values reported in ChEMBL document CHEMBL3769371, “1-[(2E)-3-Phenylprop-2-enoyl]-1H-benzimidazoles as anticancer agents: synthesis, crystal structure analysis and binding studies of the most potent anticancer molecule with serum albumin” (Medchemcomm, 2015).
The source made the active and inactive calls. No cut-off for these calls is given here.

Experiments:
[1] = tested on: CCRF-CEM; experiment: Antiproliferative activity against human CCRF-CEM cells at 10'5 M; assay type: functional
[2] = tested on: RPMI-8226; experiment: (§1) Antiproliferative activity against human RPMI8226 cells at 10'5 M; assay type: functional
[3] = tested on: SR; experiment: Antiproliferative activity against human SR cells at 10'5 M; assay type: functional
[4] = tested on: MCF7; experiment: Antiproliferative activity against human MCF7 cells at 10'5 M; assay type: functional
[5] = tested on: HCT-116; experiment: (§2) Antiproliferative activity against human HCT116 cells at 10'5 M; assay type: functional
[6] = tested on: K562; experiment: Antiproliferative activity against human K562 cells at 10'5 M; assay type: functional
[7] = tested on: MOLT-4; experiment: Antiproliferative activity against human MOLT4 cells at 10'5 M; assay type: functional
[8] = tested on: NCI-H460; experiment: Antiproliferative activity against human NCI-H460 cells at 10'5 M; assay type: functional
[9] = tested on: Malme-3M; experiment: Antiproliferative activity against human MALME-3M cells at 10'5 M; assay type: functional
[10] = tested on: NCI/ADR-RES; experiment: Antiproliferative activity against human NCI-ADR-RES cells at 10'5 M; assay type: functional
[11] = tested on: SK-OV-3; experiment: Antiproliferative activity against human SKOV3 cells at 10'5 M; assay type: functional
[12] = tested on: TK-10; experiment: Antiproliferative activity against human TK10 cells at 10'5 M; assay type: functional
[13] = tested on: PC-3; experiment: Antiproliferative activity against human PC3 cells at 10'5 M; assay type: functional
[14] = tested on: HCC 2998; experiment: Antiproliferative activity against human HCC2998 cells at 10'5 M; assay type: functional
[15] = tested on: SNB-75; experiment: Antiproliferative activity against human SNB75 cells at 10'5 M; assay type: functional
[16] = tested on: IGROV-1; experiment: Antiproliferative activity against human IGROV1 cells at 10'5 M; assay type: functional
[17] = tested on: OVCAR-4; experiment: Antiproliferative activity against human OVCAR4 cells at 10'5 M; assay type: functional
[18] = tested on: DU-145; experiment: Antiproliferative activity against human DU145 cells at 10'5 M; assay type: functional
[19] = tested on: Hs-578T; experiment: Antiproliferative activity against human Hs 578T cells at 10'5 M; assay type: functional
[20] = as §1; assay type: functional, RPMI-8226
[21] = as §2; assay type: functional, HCT-116

| Compound | Activity [1] | Activity [2] | Activity [3] | Activity [4] | Activity [5] | Activity [6] | Activity [7] | Activity [8] | Activity [9] | Activity [10] | Activity [11] | Activity [12] | Activity [13] | Activity [14] | Activity [15] | Activity [16] | Activity [17] | Activity [18] | Activity [19] | further results |
| --- | --- | --- | --- | --- | --- | --- | --- | --- | --- | --- | --- | --- | --- | --- | --- | --- | --- | --- | --- | --- |
| Cc1cc2ncn(C(=O)/C=C/c3ccccc3)c2cc1C | inactive | inactive | inactive | inactive | inactive | inactive | inactive | inactive | inactive | inactive | inactive | inactive | inactive | inactive | inactive | inactive | inactive | inactive | inactive | – |
| O=C(/C=C/c1ccccc1)n1c(-c2ccccc2O)nc2ccccc21 | inactive | inactive | inactive | inactive | inactive | inactive | inactive | inactive | inactive | inactive | inactive | inactive | inactive | inactive | inactive | inactive | inactive | inactive | inactive | – |
| Cc1ccc2nc[nH]c2c1 | – | – | – | – | – | – | – | – | – | – | – | – | – | – | – | – | – | – | – | growth inhibition (GI) [1]: 60.81%; growth inhibition (GI) [20]: 88.17%; growth inhibition (GI) [3]: 84.7%; growth inhibition (GI) [4]: 73.43%; growth inhibition (GI) [21]: 64.84% |
| COc1ccc(-c2nc3ccccc3n2C(=O)/C=C/c2ccccc2)cc1 | inactive | inactive | inactive | inactive | inactive | inactive | inactive | inactive | inactive | inactive | inactive | inactive | inactive | inactive | inactive | inactive | inactive | inactive | inactive | – |
| O=C(/C=C/c1ccccc1)n1c(-c2ccc(O)cc2)nc2ccccc21 | inactive | inactive | inactive | inactive | inactive | inactive | inactive | inactive | inactive | inactive | inactive | inactive | inactive | inactive | inactive | inactive | inactive | inactive | inactive | – |
| Cc1nc2ccccc2n1C(=O)/C=C/c1ccccc1 | inactive | inactive | inactive | inactive | inactive | inactive | inactive | inactive | inactive | inactive | inactive | inactive | inactive | inactive | inactive | inactive | inactive | inactive | inactive | – |
| Cc1ccc2ncn(C(=O)/C=C/c3ccccc3)c2c1 | inactive | inactive | inactive | inactive | inactive | inactive | inactive | inactive | inactive | inactive | inactive | inactive | inactive | inactive | inactive | inactive | inactive | inactive | inactive | – |
| O=C(/C=C/c1ccccc1)n1c(-c2ccccc2)nc2ccccc21 | inactive | inactive | inactive | inactive | inactive | inactive | inactive | inactive | inactive | inactive | inactive | inactive | inactive | inactive | inactive | inactive | inactive | inactive | inactive | – |
| Cc1cc2nc[nH]c2cc1C [DIMEDAZOL] | – | – | – | – | – | – | – | – | – | – | – | – | – | – | – | – | – | – | – | growth inhibition (GI) [1]: 64.66%; growth inhibition (GI) [20]: 63.61%; growth inhibition (GI) [3]: 64.66%; growth inhibition (GI) [4]: 69.59% |
